Patent publication US6239131A, “1,5 Benzodiazepine derivatives” (Zeria Pharmaceutical Co., Ltd., priority 1996, dated 2001)

Molecular target: T1, CCK-B receptors (Cavia porcellus, UniProt H0VZC5)
T1 construct: Cerebral cortices were removed from Hartley-strain guinea pigs, the cerebral cortices were homogenized; from tissue; host or cells: cerebral cortex of Hartley-strain guinea pigs, crude membrane pellet
T1 sequence (H0VZC5 1-426): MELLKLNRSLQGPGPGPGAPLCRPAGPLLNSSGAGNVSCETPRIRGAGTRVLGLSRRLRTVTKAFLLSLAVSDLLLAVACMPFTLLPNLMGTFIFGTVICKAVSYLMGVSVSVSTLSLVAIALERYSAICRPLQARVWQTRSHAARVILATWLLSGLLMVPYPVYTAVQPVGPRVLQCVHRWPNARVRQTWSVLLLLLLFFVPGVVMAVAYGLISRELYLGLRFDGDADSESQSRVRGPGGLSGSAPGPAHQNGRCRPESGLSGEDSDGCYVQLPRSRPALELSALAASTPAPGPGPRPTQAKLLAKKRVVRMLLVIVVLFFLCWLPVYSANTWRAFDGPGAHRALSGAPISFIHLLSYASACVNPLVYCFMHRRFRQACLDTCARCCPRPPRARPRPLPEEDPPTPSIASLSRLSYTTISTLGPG
Assay: Measurement of Binding Affinity for CCK-B Receptors
Design: species or system Hartley-strain guinea pig
Details: inhibition of specific [3H]CCK-8 (1.0 nM) binding; guinea pig cerebral cortex; 25° C., 2 hours; pH 6.5; read-out: Ki (CCK-B receptors)
Experimental: Cerebral cortices were removed from Hartley-strain guinea pigs, the cerebral cortices were homogenized in 50 volumes of 50 mM Tris-HCl buffer (pH7.4) and centrifuged at 50000×g for 10 minutes. The Tris-HCl buffer was added to the pellet and recentrifuged as above two times. The final pellet was rehomogenized in 10 mM HEPES buffer (pH 6.5, which hereinafter be abbreviated as "solvent") containing 5 mM MgCl2, 1 mM EGTA, 0.25 mg/ml bacitracin and 130 mM NaCl, and used as the receptor preparation.
Binding assay was measured as follows. Fifty μl of [^3 H]CCK-8 (at the final concentration of 1.0 nM) and 900 μl of the receptor preparation (800 μg protein/tube) were added to 50 μl of either solvent, CCK-8 (1 μM) or a test compound. These ware reacted at 25° C. for 2 hours. After the reaction, the mixture was filtrated through Whatman GF/B filter presoaked in 0.1% BSA. The filter was washed with 3 ml of ice-cold 50 mM Tris-HCl buffer (pH 7.4) four times, immediately after the filtration. The filter was soaked in the ACS-II scintillation cocktail for a day and radioactivity was measured using a liquid scintillation counter. Non-specific binding was defined as the radioactivity in the presence of 1 μM CCK-8. Specific binding was defined as the difference between total binding (used solvent without CCK-8) and non-specific binding. Inhibitor dissociation constant (Ki) of each test compound was determined from the inhibition of specific [^3 H]CCK-8 binding.

| Structure (SMILES) | Ki [nM] |
| --- | --- |
| CC(C)(C)OC(=O)CN1C(=O)C(NC(=O)Nc2cccc(C(=O)NS(C)(=O)=O)c2)CN(c2ccccc2)c2ccccc21 (stereo not drawn) [Example 16, 1-(1-tert-butoxycarbonylmethyl-2-oxo-5-phenyl-1,3,4,5-tetrahydro-2H-1,5-benzodiazepin-3-yl)-3-(3-methylsulfonylaminocarbonylphenyl)urea] | 2.14 |
| CN(C(=O)CN1C(=O)C(NC(=O)Nc2cccc(C(=O)NS(C)(=O)=O)c2)CN(c2ccccc2)c2ccccc21)c1ccccc1 (stereo not drawn) [Example 15, 1-[1-(N-phenyl-N-methyl)carbamoylmethyl-2-oxo-5-phenyl-1,3,4,5-tetrahydro-2H-1,5-benzodiazepin-3-yl]-3-(3-methylsulfonylaminocarbonylphenyl)urea] | 0.99 |
| CC(C)(C)C(=O)CN1C(=O)C(NC(=O)Nc2cccc(OCC(=O)O)c2)CN(c2ccccc2)c2ccccc21 (stereo not drawn) [Example 35, 3-[3-(1-tert-butylcarbonylmethyl-2-oxo-5-phenyl-1,3,4,5-tetrahydro-2H-1,5-benzodiazepin-3-yl)ureido]phenoxyacetic acid] | 0.61 |
| CC(C)(C)OC(=O)CN1C(=O)C(NC(=O)Nc2cccc(SCC(=O)O)c2)CN(c2ccccc2)c2ccccc21 (stereo not drawn) [Example 81, 3-[3-[1-tert-butoxycarbonylmethyl-2-oxo-5-phenyl-1,3,4,5-tetrahydro-2H-1,5-benzodiazepin-3-yl]ureido]phenylthioacetic acid] | 0.56 |
| Cc1cccc(NC(=O)NC2CN(C(=O)C(C)(C)C)c3ccc(C)cc3N(CC(=O)c3ccccc3C)C2=O)c1 (stereo not drawn) [Example 4, 1-[1-(2-toluoylmethyl)-2-oxo-5-pivaloyl-8-methyl-1,3,4,5-tetrahydro-2H-1,5-benzodiazepin-3-yl]-3-(3-methylphenyl)urea] | 1.11 |
| CC(C)(C)C(=O)CN1C(=O)C(NC(=O)Nc2cccc(C(=O)NS(C)(=O)=O)c2)CN(c2ccccc2)c2ccccc21 (stereo not drawn) [Example 46, 1-(1-tert-butylcarbonylmethyl-2-oxo-5-phenyl-1,3,4,5-tetrahydro-2H-1,5-benzodiazepin-3-yl)-3-(3-methylsulfonylaminocarbonylphenyl)urea] | 0.7 |

The next lines start with the values.

| Ki [nM] | Structure (SMILES) |
| --- | --- |
| 1.29 | CCC(C)(C)C(=O)N1CC(NC(=O)Nc2cccc(C(=O)O)c2)C(=O)N(CC(=O)c2ccccc2C)c2cc(C)ccc21 (stereo not drawn) [Example 93, 3-[3-[1-(2-toluoylmethyl)-2-oxo-5-(2,2-dimethylbutanoyl)-8-methyl-1,3,4,5-tetrahydro-2H-1,5-benzodiazepin-3-yl]ureido]benzoic acid] |
| 0.98 | Cc1ccccc1C(=O)CN1C(=O)C(NC(=O)Nc2cccc(-c3nnn[nH]3)c2)CN(C(=O)C(C)(C)C)c2ccccc21 (stereo not drawn) [Example 61, 1-[1-(2-toluoylmethyl)-2-oxo-5-pivaloyl-1,3,4,5-tetrahydro-2H-1,5-benzodiazepin-3-yl]-3-[3-(tetrazol-5-yl)phenyl]urea] |
| 0.79 | Cc1ccccc1C(=O)CN1C(=O)C(NC(=O)Nc2cccc(-c3noc(=O)[nH]3)c2)CN(C(=O)C(C)(C)C)c2ccccc21 (stereo not drawn) [Example 62, 1-[1-(2-toluoylmethyl)-2-oxo-5-pivaloyl-1,3,4,5-tetrahydro-2H-1,5-benzodiazepin-3-yl]-3-[3-(5-oxo-4H-1,2,4-oxadiazolin-3-yl)phenyl]urea] |
| 2.88 | Cc1cccc(NC(=O)NC2CN(c3ccccc3)c3ccccc3N(CC(=O)C(C)(C)C)C2=O)c1 (stereo not drawn) [Example 71, 1-(1-tert-butylcarbonylmethyl-2-oxo-5-phenyl-1,3,4,5-tetrahydro-2H-1,5-benzodiazepin-3-yl)-3-(3-methylphenyl)urea] |
| 0.43 | CC(C)(C)C(=O)CN1C(=O)[C@H](NC(=O)Nc2cccc(OC(C)(C)C(=O)O)c2)CN(C2CCCCC2)c2ccccc21 [Example 125, (R)-(-)-2-methyl-2-[3-[3-(1-tert-butylcarbonylmethyl-2-oxo-5-cyclohexyl-1,3,4,5-tetrahydro-2H-1,5-benzodiazepin-3-yl)ureido]phenoxy]propionic acid] |
| 1.57 | Cc1ccccc1C(=O)CN1C(=O)C(NC(=O)Nc2cccc(CC(=O)O)c2)CN(C(=O)C(C)(C)C)c2ccccc21 (stereo not drawn) [Example 72, 3-[3-[1-(2-toluoylmethyl)-2-oxo-5-pivaloyl-1,3,4,5-tetrahydro-2H-1,5-benzodiazepin-3-yl]ureido]phenylacetic acid] |
| 1.97 | CC(C)(C)C(=O)CN1C(=O)[C@H](NC(=O)Nc2cccc(C(=O)O)c2)CN(C[C@@H]2CC[C@H]3C[C@@H]2C3(C)C)c2ccccc21 [Example 157, 3-[3-[(3R)-1-tert-butylcarbonylmethyl-2-oxo-5-[(1S, 2R, 5S)-pinan-10-yl]-1,3,4,5-tetrahydro-2H-1,5-benzodiazepin-3-yl]ureido]benzoic acid] |
| 0.18 | Cc1ccccc1C(=O)CN1C(=O)C(NC(=O)Nc2cccc(SCC(=O)O)c2)CN(C(=O)C(C)(C)C)c2ccccc21 (stereo not drawn) [Example 78, 3-[3-[1-(2-toluoylmethyl)-2-oxo-5-pivaloyl-1,3,4,5-tetrahydro-2H-1,5-benzodiazepin-3-yl]ureido]phenylthioacetic acid] |
| 1.33 | Cc1ccc2c(c1)N(CC(=O)c1ccccc1C)C(=O)C(NC(=O)Nc1cccc(C(=O)O)c1)CN2C(=O)c1ccccn1 (stereo not drawn) [Example 105, 3-[3-[1-(2-toluoylmethyl)-2-oxo-5-(2-pyridylcarbonyl)-8-methyl-1,3,4,5-tetrahydro-2H-1,5-benzodiazepin-3-yl]ureido]benzoic acid] |
| 5.02 | COC(=O)N1CC(NC(=O)Nc2cccc(C)c2)C(=O)N(CC(=O)c2ccccc2C)c2ccccc21 (stereo not drawn) [Example 49, 1-[1-(2-toluoylmethyl)-2-oxo-5-methoxycarbonyl-1,3,4,5-tetrahydro-2H-1,5-benzodiazepin-3-yl]-3-(3-methylphenyl)urea] |
| 2.86 | COc1cccc(NC(=O)NC2CN(C3CCCCC3)c3ccccc3N(CC(=O)C(C)(C)C)C2=O)c1 (stereo not drawn) [Example 151, 1-(1-tert-butylcarbonylmethyl-2-oxo-5-cyclohexyl-1,3,4,5-tetrahydro-2H-1,5-benzodiazepin-3-yl)-3-(3-methoxyphenyl)urea] |

System: pentagastrin-stimulated acid secretion
Assay: Measurement of Inhibition of Pentagastrin-stimulated Acid Secretion
Assay type: in vivo, male Sprague-Dawley (SD)-strain rats
Details: 0.3 mg/kg, intraduodenal, rat; acid output from 1 to 4 hours after administration; pentagastrin 15 μg/kg/hr
Experimental: Male Sprague-Dawley (SD)-strain rats were used. Each rat was operated to ligate the pylorus, and equip with a duodenal catheter and gastric fistula under a ether anesthesia. After the operation, each rat was placed in a Bollman-type cage and continuously infused pentagastrin (15 μg/kg/hr) through the tail vein. Test compounds were suspended in 0.5% aqueous sodium carboxymethylcellulose (which hereinafter be abbreviated as "vehicle"). Vehicle or test compound was administered through the intraduodenal catheter 1 hour after the beginning of pentagastrin infusion. Acidity of the collected gastric juice was measured by an automatic titillation device. Acid output was determined by multiplying the volume by the acidity of gastric juice. […] [formula]

| Structure (SMILES) | inhibition in vivo at 0.3 mg/kg [%] |
| --- | --- |
| Cc1ccc(NC(=O)N[C@@H]2CN(C3CCCCC3)c3ccccc3N(CC(=O)C(C)(C)C)C2=O)cc1C(=O)O [Example 166, (R)-(-)-2-methyl-5-[3-(1-tert-butylcarbonylmethyl-2-oxo-5-cyclohexyl-1,3,4,5-tetrahydro-2H-1,5-benzodiazepin-3-yl)ureido]benzoic acid] | 51.2 |

Same assay, conditions: 30 mg/kg, intraduodenal, rat; acid output from 1 to 4 hours after administration; pentagastrin 15 μg/kg/hr

| Structure (SMILES) | inhibition in vivo at 30 mg/kg [%] |
| --- | --- |
| Cc1ccc2c(c1)N(CC(=O)C(C)(C)C)C(=O)C(NC(=O)Nc1cccc(C(=O)O)c1)CN2C1CCCCC1 (stereo not drawn) [Example 118, 3-[3-(1-tert-butylcarbonylmethyl-2-oxo-5-cyclohexyl-8-methyl-1,3,4,5-tetrahydro-2H-1,5-benzodiazepin-3-yl)ureido]benzoic acid] | 88.3 |
| Cc1ccc2c(c1)N(CC(=O)c1cccs1)C(=O)C(NC(=O)Nc1cccc(C(=O)O)c1)CN2C(=O)C(C)(C)C (stereo not drawn) [Example 89, 3-[3-[1-(2-Thenoylmethyl)-2-oxo-5-pivaloyl-8-methyl-1,3,4,5-tetrahydro-2H-1,5-benzodiazepin-3-yl]ureido]benzoic acid] | 87.8 |
| Cc1ccc2c(c1)N(CC(=O)c1ccccc1C)C(=O)C(NC(=O)Nc1cccc(C(=O)O)c1)CN2C(=O)c1ccco1 (stereo not drawn) [Example 113, 3-[3-[1-(2-toluoylmethyl)-2-oxo-5-(furan-2-ylcarbonyl)-8-methyl-1,3,4,5-tetrahydro-2H-1,5-benzodiazepin-3-yl]ureido]benzoic acid] | 75.7 |
